One data set relates to HepG2 cells. In words: Anti-tumor activity assay (IC50 value), cells counted after three days. The conditions noted are these: for IC50: read-out: IC50 HepG2; for fold increase in cellular potency: HepG2, compared to T1.
The test system of the next data set is SK-Hep1 cells. The data set is described as above. The following applies: read-out: IC50 SK-Hep1.
Another data set concerns GSDME. In words: Western blot of GSDME activation. The following applies: HepG2 and SK-Hep1 cells. Type of data set: cell-based, human. The protocol:
The whole-cell protein was extracted by RIPA lysis buffer contained with protease and phosphatase inhibitor cocktail (MCE, HY-K0010) from cells treated by indole analogues. Proteins were separated by sodium dodecyl sulfate-polyacrylamide gel electrophoresis (SDS-PAGE) gel, and then blotted onto polyvinylidene difluoride membrane (Millipore, IPVH00010). The membranes were incubated with the primary antibodies and the following horseradish peroxidase-conjugated (HRP) secondary antibodies. Next, membranes were washed and developed by ECL regent (Millipore, WBKLS0500).
(In western blotting, separated proteins are transferred to a membrane and probed.)

In another data set the test system is PLC-PRF5 cells. In words: Anti-tumor activity assay (IC50 value), cells counted after three days. It is filed as cell-based. The following applies: Homo sapiens, PLC-PRF-5, 72 h. The source says:
The cells were counted with hemocytometer.

The next data set deals with HepG2 and SK-Hep1 cells. Briefly: LDH release assay. It is filed as cell-based, human. The conditions noted are these: 0-4 μM, three days. The method, then:
The hepatic carcinoma cells were seeded in 96-well plates and treated with indole analogues for three days. Of note, the compounds were added into DMEM medium supplemented with 1% FBS. The cellular supernatant was collected for LDH release detection by using LDH cytotoxicity assay kit (Beyotime, C0016). Statistical analysis was combined with the cell viability data tested by WST-1 cell proliferation and cytotoxicity assay kit (Beyotime, C0035).

Data set [1] is described as follows: Liver microsome metabolic stability assay. The conditions noted are these: microsomes. The method, then:
The reaction media contained liver microsomes (0.5 mg/mL), 1.0 mM β-nicotinamide adenine dinucleotide phosphate (β-NADPH), 3 mM MgCl2 phosphate buffer. Microsomal suspensions were pre-incubated with Tc3 for 3 min at 37℃. The reaction was initiated with the addition of β-NADPH and samples were collected at 0, 5, 15, 30 and 60 min. The negative control was excluded of β-NADPH. Midazolam was incubated similarly as a positive control substrate. At each time point, an aliquot was mixed acetonitrile. Samples were centrifuged and then supernatant was mixed with ultrapure water for LC-MS/MS analysis.
For orientation: Liver microsomes are vesicles of endoplasmic reticulum, rich in cytochrome P450 enzymes.

The term IC50 denotes the concentration that inhibits the measured activity by half. In general, microsomal CLint refers to the rate of metabolic loss divided by the concentration. Lower therefore signals greater metabolic stability. As usually defined, the half-life is the time in which the quantity being followed falls by half. A higher half-life goes with slow loss.

Read-outs that look alike come from different tables or passages of the source.
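Wherever fold increase in cellular potency is given: HepG2 cells exposed to a drug concentration series for 3 days, then counted with a hemocytometer, inhibition relative to untreated control cell number, IC50 obtained by curve fitting.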

Experimental for HepG2 cells: For half maximal inhibitory concentrations (IC50) analysis, the hepatic carcinoma cells (HepG2, SK-Hep1 and PLC-PRF5) were seeded in 24-well plates respectively, then treated with drugs at concentration gradient for three days. The cells were counted with hemocytometer. […] A is the cell quantity of the control group and B is the cell quantity of the drug treated group. The cell inhibition rate was transformed using its logarithm. And the drug IC50 value were calculated by Graphpad Prsim 9 software with curve fitting of the drug concentration and log (cell inhibition rate).

Regarding `COc1ccc(/N=C2\S/C(=C\c3cn(CCCNC(=O)[C@@H](N)C(C)C)c4ccccc34)C(=O)N2Cc2ccc(F)cc2)cc1` [Tc10], the IC50 in the data set on HepG2 cells (Homo sapiens, HepG2, 72 h) is over 100 µM. Turning to `N[C@@H](Cc1ccc(O)cc1)C(=O)NCCCn1cc(/C=C2\SC(=O)N(Cc3ccc(F)cc3)C2=O)c2cc(Br)ccc21` [Tb5], the IC50 with HepG2 cells (Homo sapiens, HepG2, 72 h) stood at 11.3 µM. For `Nc1ccn([C@@H]2O[C@H](CO)[C@@H](O)C2(F)F)c(=O)n1` [Gemcitabine, reference compound], the IC50 in the data set with SK-Hep1 cells (Homo sapiens, SK-HEP1, 72 h) is 0.04 ± 0.003 µM; with HepG2 cells (Homo sapiens, HepG2, 72 h), 0.14 ± 0.01 µM. On to `NCCCn1cc(/C=C2\SC(=O)N(Cc3ccc(F)cc3)C2=O)c2ccccc21` [Compound T1], for which the IC50 in the data set with HepG2 cells (Homo sapiens, HepG2, 72 h) was 15.9 µM. Same read-out and setting: for `CC(C)[C@H](N)C(=O)NCCCn1cc(/C=C2\S/C(=N/C3CCCCC3)N(Cc3ccc(F)cc3)C2=O)c2ccccc21` [Tc11] the value was 20.9 µM. `CC[C@H](C)[C@H](N)C(=O)NCCCn1cc(/C=C2\SC(=O)N(Cc3ccc(F)cc3)C2=O)c2cc(Br)ccc21` [Tb7]: the “GSDME activation / cleavage (western blotting)” value (“GSDME activation / cleavage” for short) in the data set on GSDME was “did not activate GSDME”. The IC50 with SK-Hep1 cells (Homo sapiens, SK-HEP1, 72 h) was 2.21 ± 0.17 µM; in the data set with HepG2 cells (Homo sapiens, HepG2, 72 h), 1.79 µM; in the data set with PLC-PRF5 cells it was 1.26 ± 0.31 µM. Moreover, in the data set with HepG2 cells, the “fold increase in cellular potency” value is about 9 fold. Moreover, in the data set with HepG2 and SK-Hep1 cells, the LDH release levels entry is given as “increased”.

Turning to `Cc1ncc2n1-c1ccc(Cl)cc1C(c1ccccc1F)=NC2` [midazolam, reference compound], the microsomal CLint at 1 μM in data set [1] (human) amounted to 1200 µL/min/mg; in data set [1] (mouse), 1270 µL/min/mg. In addition, the half-life at 1 μM in data set [1] (mouse) turned out to be 2.72 min. With `CC(C)[C@H](N)C(=O)NCCCn1cc(/C=C2\S/C(=N\c3ccccc3)N(Cc3ccc(F)cc3)C2=O)c2ccccc21` [Tc6], the IC50 in the data set on HepG2 cells (Homo sapiens, HepG2, 72 h) is over 100 µM. On the same count and under the same terms, for `CCCCCCCC(=O)NCCCn1cc(/C=C2\SC(=O)N(Cc3ccc(F)cc3)C2=O)c2ccccc21` [Ta5] the value was over 100 µM. `O=C(NCCCn1cc(/C=C2\S/C(=N\c3ccc(N4CCOCC4)cc3)N(Cc3ccc(F)cc3)C2=O)c2ccccc21)[C@@H]1CCCN1` [Tc4]: the “GSDME activation / cleavage” value in the data set with GSDME is reported as “did not activate GSDME”. Moreover, the IC50 in the data set with SK-Hep1 cells (Homo sapiens, SK-HEP1, 72 h) turned out to be 2.3 ± 0.14 µM; in the data set on HepG2 cells (Homo sapiens, HepG2, 72 h), 2.46 µM; with PLC-PRF5 cells it was 2.92 ± 0.32 µM. Also, the “fold increase in cellular potency” value in the data set with HepG2 cells is listed as about 6.5 fold. Also, in the data set on HepG2 and SK-Hep1 cells, the LDH release levels entry is on record as “increased”.

Turning to `CC(C)C(=O)NCCCn1cc(/C=C2\SC(=O)N(Cc3ccc(F)cc3)C2=O)c2ccccc21` [Ta3], in the data set with HepG2 cells (Homo sapiens, HepG2, 72 h), the half-inhibitory concentration (IC50) is over 50 µM. For the compound `COc1cc2nccc(Oc3ccc(NC(=O)C4(C(=O)Nc5ccc(F)cc5)CC4)cc3)c2cc1OC` [Cabozantinib, reference compound], the IC50 turned out to be 2.26 ± 0.32 µM with SK-Hep1 cells (Homo sapiens, SK-HEP1, 72 h) and 2.64 ± 0.85 µM in the data set with HepG2 cells (Homo sapiens, HepG2, 72 h). For `CC(C)[C@H](N)C(=O)NCCCn1cc(/C=C2\SC(=O)N(Cc3ccc(F)cc3)C2=O)c2ccccc21` [Tb2], the IC50 in the data set on HepG2 cells (Homo sapiens, HepG2, 72 h) turned out to be 6.74 ± 0.8 µM. Still for that read-out and setting: for `O=C(NCCCn1cc(/C=C2\SC(=O)N(Cc3ccc(F)cc3)C2=O)c2cc(Br)ccc21)[C@@H]1CCCN1` [Tb4] the value was 9.23 µM. For the compound `CC(C)[C@H](N)C(=O)NCCCn1cc(/C=C2\S/C(=N\c3ccc(Cl)cc3)N(Cc3ccc(F)cc3)C2=O)c2ccccc21` [Tc8], the concentration for half-maximal inhibition (IC50) with HepG2 cells (Homo sapiens, HepG2, 72 h) turned out to be 15.2 µM. Consider `CSCC[C@H](N)C(=O)NCCCn1cc(/C=C2\S/C(=N\c3ccc(N4CCOCC4)cc3)N(Cc3ccc(F)cc3)C2=O)c2ccccc21` [Tc2], for which the “fold increase in cellular potency” value in the data set with HepG2 cells was about 2 fold. Further, the IC50 in the data set on HepG2 cells (Homo sapiens, HepG2, 72 h) came to 8.77 µM. Take `CNC(=O)c1cc(Oc2ccc(NC(=O)Nc3ccc(Cl)c(C(F)(F)F)c3)c(F)c2)ccn1` [Regorafenib, reference compound]: the IC50 in the data set on SK-Hep1 cells (Homo sapiens, SK-HEP1, 72 h) was 4.23 ± 0.64 µM; in the data set with HepG2 cells (Homo sapiens, HepG2, 72 h) it was 4.21 ± 0.33 µM. For `NCCCn1cc(/C=C2\S/C(=N\c3ccc(N4CCOCC4)cc3)N(Cc3ccc(F)cc3)C2=O)c2ccccc21` [Tc1], the “GSDME activation / cleavage” value in the data set on GSDME is reported as “did not activate GSDME”. Also, the IC50 in the data set with SK-Hep1 cells (Homo sapiens, SK-HEP1, 72 h) is 2.87 ± 0.61 µM; with HepG2 cells (Homo sapiens, HepG2, 72 h) it was 5.13 µM; in the data set with PLC-PRF5 cells, 2.71 ± 0.12 µM. Also, the “fold increase in cellular potency” value in the data set with HepG2 cells is ~ 3 fold. The LDH release levels entry in the data set with HepG2 and SK-Hep1 cells is “increased”. Take `COc1cc2nccc(Oc3ccc(NC(=O)NC4CC4)c(Cl)c3)c2cc1C(N)=O` [Lenvatinib, reference compound]: the IC50 in the data set on SK-Hep1 cells (Homo sapiens, SK-HEP1, 72 h) is 12.4 ± 1.32 µM; with HepG2 cells (Homo sapiens, HepG2, 72 h), 19.8 ± 1.43 µM. Consider `CC(C)CCC(=O)NCCCn1cc(/C=C2\SC(=O)N(Cc3ccc(F)cc3)C2=O)c2ccccc21` [Ta4], for which the IC50 in the data set with HepG2 cells (Homo sapiens, HepG2, 72 h) is over 100 µM. On to `O=C(NCCCn1cc(/C=C2\SC(=O)N(Cc3ccc(F)cc3)C2=O)c2ccccc21)C1CCCC1` [Ta1], for which the IC50 with HepG2 cells (Homo sapiens, HepG2, 72 h) came out at 27.7 µM. Still for that read-out and setting: for `C[C@H](N)C(=O)NCCCn1cc(/C=C2\SC(=O)N(Cc3ccc(F)cc3)C2=O)c2ccccc21` [Tb1] the value was 7.97 ± 0.3 µM; for `CC(C)[C@H](N)C(=O)NCCCn1cc(/C=C2\S/C(=N\c3ccc(F)cc3)N(Cc3ccc(F)cc3)C2=O)c2ccccc21` [Tc7], 12.4 µM. On the same count and under the same terms, for `COc1ccc2c(c1)c(/C=C1\SC(=O)N(Cc3ccc(F)cc3)C1=O)cn2CCCNC(=O)[C@@H](N)Cc1ccc(O)cc1` [Tb8] the value was 6.92 ± 1.21 µM. Turning to `CCCC/N=C1\S/C(=C\c2cn(CCCNC(=O)[C@@H](N)C(C)C)c3ccccc23)C(=O)N1Cc1ccc(F)cc1` [Tc12], the IC50 in the data set with HepG2 cells (Homo sapiens, HepG2, 72 h) was 25 µM. In the case of `CC[C@H](C)[C@H](N)C(=O)NCCCn1cc(/C=C2\S/C(=N\c3ccc(N4CCOCC4)cc3)N(Cc3ccc(F)cc3)C2=O)c2ccccc21` [Tc5], the “fold increase in cellular potency” value in the data set on HepG2 cells is reported as ~ 3 fold. For the same compound, the IC50 with HepG2 cells (Homo sapiens, HepG2, 72 h) stood at 4.9 µM. Consider `COc1ccc2c(c1)c(/C=C1\SC(=O)N(Cc3ccc(F)cc3)C1=O)cn2CCCNC(=O)[C@@H]1CCCN1` [Tb9], for which, in the data set with HepG2 cells (Homo sapiens, HepG2, 72 h), the IC50 turned out to be 7.47 µM.

Turning to `O=C(NCCCn1cc(/C=C2\SC(=O)N(Cc3ccc(F)cc3)C2=O)c2ccccc21)[C@@H]1CCCN1` [Tb3], the IC50 with HepG2 cells (Homo sapiens, HepG2, 72 h) was found to be 6.2 µM. Still for that read-out and setting: next, `CSCC[C@H](N)C(=O)NCCCn1cc(/C=C2\SC(=O)N(Cc3ccc(F)cc3)C2=O)c2cc(Br)ccc21` [Tb6]: 6.31 ± 0.35 µM; `CC(C)[C@H](N)C(=O)NCCCn1cc(/C=C2\S/C(=N\c3ccc(C(F)(F)F)cc3)N(Cc3ccc(F)cc3)C2=O)c2ccccc21` [Tc9]: 10.8 µM. As for `CNC(=O)c1cc(Oc2ccc(NC(=O)Nc3ccc(Cl)c(C(F)(F)F)c3)cc2)ccn1` [Sorafenib, reference compound], the results for the IC50 with SK-Hep1 cells (72 h) and with HepG2 cells (72 h) were 4.4 µM and 6.06 µM, respectively.
